Data taken from paper PMC6009888, “Design, synthesis, and pharmacological evaluation of 2-amino-5-nitrothiazole derived semicarbazones as dual inhibitors of monoamine oxidase and cholinesterase: effect of the size of aryl binding site” (Journal of Enzyme Inhibition and Medicinal Chemistry, 2017).
“And” between values parts separate entries of the source, which are not always exact repeats. Equal values may be shown once. Read-outs that look alike come from different tables or passages of the source.

Assays:
MAO-A = target: T1, MAO-A (Rattus norvegicus, UniProt P21396); experiment: In vitro MAO-A inhibition assay (rat brain mitochondria, serotonin substrate); type: biochemical; conditions: rat brain mitochondria, serotonin substrate, mean ± SEM, triplicate
T1 construct: employing crude rat brain mitochondrial suspension; from tissue; host or cells: brain mitochondria of adult Wistar rats
T1 sequence (P21396 1-526): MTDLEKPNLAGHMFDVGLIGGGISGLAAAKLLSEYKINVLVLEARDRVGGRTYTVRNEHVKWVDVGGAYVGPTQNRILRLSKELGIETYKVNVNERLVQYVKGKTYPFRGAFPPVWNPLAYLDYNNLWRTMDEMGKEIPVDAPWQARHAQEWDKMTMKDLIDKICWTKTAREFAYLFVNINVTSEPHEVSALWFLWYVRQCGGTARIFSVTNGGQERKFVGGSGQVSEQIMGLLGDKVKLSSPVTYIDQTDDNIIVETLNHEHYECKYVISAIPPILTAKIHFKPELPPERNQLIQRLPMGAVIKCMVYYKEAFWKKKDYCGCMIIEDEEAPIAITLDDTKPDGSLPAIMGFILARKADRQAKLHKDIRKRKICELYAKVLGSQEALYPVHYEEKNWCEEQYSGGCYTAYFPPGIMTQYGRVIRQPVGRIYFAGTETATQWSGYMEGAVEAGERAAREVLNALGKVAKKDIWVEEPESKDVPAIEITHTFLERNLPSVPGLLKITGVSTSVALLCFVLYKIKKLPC
Experimental: (§1) Rat brain mitochondria were used as a source of MAO isoforms. All operations were carried out at 4 °C[50]. Male and female adult Wistar rats weighing 200–220 g were decapitated. All brains were rapidly removed and homogenised with a Potter–Elvehjem homogeniser in cold 0.32 M sucrose and 50 mM Tris-HCl, pH 8.2 (10:1, v/w). The homogenate was centrifuged twice at 1000 g for 5 min at 4 °C. The resulting supernatant was centrifuged at 20,000 g for 20 min. The mitochondrial pellet obtained was suspended in 100 mM sodium phosphate buffer, pH 7.4 (4:1, v/w), fractionated in plastic vials to 500 µl samples and stored at −80 °C. Before use, mitochondria were diluted with 100 mM sodium phosphate buffer to give a working solution of 0.80 mg of protein per millilitre.
(§2) The experiments were carried out under all the suitable laboratory conditions. […] An aliquot was made to contain mixture of 55 µl mitochondrial suspension (0.80 mg of protein/ml), 90 µl 50 mM Tris-HCl buffer, pH 8.2 and 30 µl solubilising solution (control or inhibitor solution at five different concentrations). The reaction was initiated by adding 25 µl of serotonin (4 mM, substrate for MAO-A) and 25 µl benzylamine (0.1 M, substrate for MAO-B) for the determination of MAO-A and MAO-B activity, respectively. The mixture was incubated at 37 °C for 30 min and the reaction was stopped by the addition of 50 µl of 1 N HCl. The absorbance associated with the production of 5-hydroxyindolacetic acid was measured at 280 nm for the estimation of MAO-A while for MAO-B estimation, the absorbance was measured at 250 nm due to the formation of benzaldehyde. All the assays were performed in triplicate. Control experiments were carried out without inhibitor and blanks were run without mitochondrial suspension.
(§3) Data are expressed as mean ± standard error mean (SEM) of experiments performed in triplicate.
(§4) 0, 15, 30 and 60 min at 37 °C in Tris-HCl buffer (50 mM, pH 8.2). […] The reactions were further incubated at 37 °C for a further 15 min and the residual enzyme activities were measured and the bar graphs were constructed. All measurements were carried out in triplicate and are expressed as mean ± SEM.

MAO-B = target: T2, MAO-B (Rattus norvegicus, UniProt P19643); experiment: biochemical; conditions: for SI (selectivity index for MAO-B): ratio of experimental IC50(MAO-A)/IC50(MAO-B)
T2 construct: employing crude rat brain mitochondrial suspension; from tissue; host or cells: brain mitochondria of adult Wistar rats
T2 sequence (P19643 1-520): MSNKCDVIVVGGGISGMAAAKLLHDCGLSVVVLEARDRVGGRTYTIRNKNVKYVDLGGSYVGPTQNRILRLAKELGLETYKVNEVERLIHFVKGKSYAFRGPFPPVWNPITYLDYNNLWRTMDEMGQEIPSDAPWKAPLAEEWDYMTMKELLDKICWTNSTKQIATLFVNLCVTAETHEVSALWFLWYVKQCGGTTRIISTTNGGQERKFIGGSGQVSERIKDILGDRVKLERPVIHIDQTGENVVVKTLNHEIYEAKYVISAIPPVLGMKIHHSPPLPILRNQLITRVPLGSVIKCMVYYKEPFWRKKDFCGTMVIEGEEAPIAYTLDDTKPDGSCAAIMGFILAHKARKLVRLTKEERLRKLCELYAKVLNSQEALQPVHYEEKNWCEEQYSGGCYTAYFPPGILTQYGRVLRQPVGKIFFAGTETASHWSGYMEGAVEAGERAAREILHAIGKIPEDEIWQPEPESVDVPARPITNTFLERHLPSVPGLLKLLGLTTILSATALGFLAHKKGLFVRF
Experimental: as §1, §2, §3, §4

rat brain AChE = target: T3, rat brain AChE (Rattus norvegicus, UniProt P37136); experiment: biochemical; type: biochemical; conditions: for IC50: rat brain AChE, ACTI substrate, mean ± SEM, triplicate
T3 construct: the resulting clear supernatants obtained were used as enzyme sources; from tissue; host or cells: rat brain cortex homogenate, 10,000 g supernatant
T3 sequence (P37136 32-614): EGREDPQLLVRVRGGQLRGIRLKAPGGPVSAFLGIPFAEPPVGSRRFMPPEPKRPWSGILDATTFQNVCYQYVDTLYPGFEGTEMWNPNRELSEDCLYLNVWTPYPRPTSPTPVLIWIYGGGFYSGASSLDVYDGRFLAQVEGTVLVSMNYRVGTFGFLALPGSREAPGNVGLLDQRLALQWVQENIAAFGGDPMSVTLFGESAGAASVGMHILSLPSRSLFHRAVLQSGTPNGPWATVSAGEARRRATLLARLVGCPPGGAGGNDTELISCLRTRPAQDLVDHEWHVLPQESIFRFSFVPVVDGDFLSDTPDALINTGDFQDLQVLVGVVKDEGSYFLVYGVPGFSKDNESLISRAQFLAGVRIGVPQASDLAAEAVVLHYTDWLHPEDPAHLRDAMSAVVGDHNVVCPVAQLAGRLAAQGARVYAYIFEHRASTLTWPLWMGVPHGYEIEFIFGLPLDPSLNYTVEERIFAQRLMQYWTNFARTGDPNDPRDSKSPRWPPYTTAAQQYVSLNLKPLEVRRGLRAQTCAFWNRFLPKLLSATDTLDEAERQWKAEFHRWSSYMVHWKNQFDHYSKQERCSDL
Experimental: Rat brain was used as a source of AChE enzyme. Rats were separately decapitated, the brain cortices quickly removed, weighed and homogenised in cold 10 mM Tris-HCl buffer, pH 7.2, containing 160 mM sucrose. The homogenates were centrifuged at 10,000 g for 10 min at 4 °C, and the resulting clear supernatants obtained were used as enzyme sources that were divided into aliquots and stored at −20 °C.
About 30 µl of enzyme sample (AChE) was added to 60 µl of 20 mM sodium phosphate buffer (pH 7.4) and were incubated in the presence of 30 µl of 10 mM DTNB solution with different concentrations of the test compounds. The enzyme reaction was initiated by the addition of 30 µl of 0.8 mM ACTI. The mixtures were incubated for 15 min at 25 °C. […] Control experiments were carried out without inhibitor, and blanks were run without AChE enzyme. All the assays were performed in triplicate. IC50 values were determined using the GraphPad Prism 5.0 (San Diego, CA) and the results were expressed as mean ± SEM.
as §4, with “25” for “37”, “sodium phosphate” for “Tris-HCl”, “(20” for “(50”, “7.4) and DTNB solution (10 mM).” for “8.2).”, “reaction was” for “reactions were”

[1] = In vitro DPPH radical scavenging assay; conditions: test sample 100 µg/ml, 100 µM methanolic DPPH, 30 min, 517 nm
Experimental: Antioxidant activity of the synthesised compounds (10 mg/ml) was evaluated using the radical scavenging capability against the stable free radical, 2,2′-diphenyl-1-picryl hydrazyl (DPPH·). The DPPH· scavenging capability was determined using UV based spectrophotometric assay. About 200 µl of the test sample solution (100 µg/ml) was added to 4 ml of 100 µM methanolic DPPH. […] Ascorbic acid (100 µg/ml) was used as reference. The percentage inhibition of DPPH activity was estimated using the formula: Percent (%) inhibition of DPPH activity = Acontrol-Asample/Acontrol×100 where Acontrol is the absorbance of DPPH· in methanol without an antioxidant and Asample is the absorbance of DPPH· in the presence of an antioxidant.

mice = experiment: Neurotoxicity screening (rotarod test); type: in vivo; conditions: for Neurotoxicity (animals that exhibit toxicity / animals tested): 30 mg/kg i.p.
Experimental: The neurotoxicity screening was undertaken according to the method followed by the National Institute of Health, using their reported procedures[55]^,[56]. Male albino mice (CF-1 strain or Swiss, 18–25 g) were used as experimental animals. The animals were housed in metabolic cages, and allowed free access to food and water. The test compounds were suspended in 0.5% methylcellulose/water mixture or in polyethylene glycol (PEG 200).
Minimal motor impairment was measured in mice by the rotarod test. The mice were trained to stay on an accelerating rotarod that rotates at six revolutions per minute. The rod diameter was 3.2 cm. Trained animals were given i.p. injection of the selected inhibitors at a dose of 30 mg/kg. Neurotoxicity was indicated by the inability of the animal to maintain equilibrium on the rod for at least 1 min in each of the three trials.

[2] = read-out: MAO-A In vitro IC50 (µM) ± SEM
[3] = read-out: AChE In vitro IC50 (µM) ± SEM

Row | SMILES | logP (physchem; octanol/water) | IC50 (MAO-A; [2]) | IC50 (MAO-B) | SI (selectivity index for MAO-B) (MAO-B) | IC50 (rat brain AChE; [3]) | % inhibition of DPPH activity [1] | Neurotoxicity (animals that exhibit toxicity / animals tested) (mice; 0.5 h) | Neurotoxicity (animals that exhibit toxicity / animals tested) (mice; 1 h) | Neurotoxicity (animals that exhibit toxicity / animals tested) (mice; 2 h) | Neurotoxicity (animals that exhibit toxicity / animals tested) (mice; 4 h) | other results
1 | O=C(NN=Cc1ccc(O)cc1)Nc1ncc([N+](=O)[O-])s1 [Compound 11, 1-(4-Hydroxybenzylidene)-4-(5-nitrothiazol-2-yl)semicarbazide] | 1.6 | 11340 ± 11.7 µM | 241.5 ± 2.31 µM | 46.96 | 584 ± 7.92 µM |  |  |  |  |  | 
2 | O=C(NN=Cc1ccc(Br)cc1)Nc1ncc([N+](=O)[O-])s1 [Compound 10, 1-(4-Bromobenzylidene)-4-(5-nitrothiazol-2-yl)semicarbazide] | 2.5 | 5153 ± 8.82 µM | 5.451 ± 0.009 µM | 945.33 | 96.4 ± 2.81 µM |  |  |  |  |  | 
3 | COc1ccc(OC)c(C=NNC(=O)Nc2ncc([N+](=O)[O-])s2)c1 [Compound 15, 1-(2,5-Dimethoxybenzylidene)-4-(5-nitrothiazol-2-yl)semicarbazide] |  | > 100 µM and 55000 µM | 11.1 ± 0.19 µM | 4945.91 | 872 ± 4.38 µM | 10.58% |  |  |  |  | 
4 | CC(=NNC(=O)Nc1ncc([N+](=O)[O-])s1)c1ccc(O)cc1 [Compound 7, 1-(1-(4-Hydroxyphenyl)ethylidene)-4-(5-nitrothiazol-2-yl)semicarbazide] | 1.2 | 5899 ± 9.84 µM | 14.75 ± 0.018 µM | 399.93 | 12.7 ± 0.62 µM |  | 0/4 | 0/4 | 0/4 | 0/4 | MAO-B: fold greater potency relative to compound 11 (MAO-B; ratio of IC50 values): ~16.37 fold; AChE: fold greater potency relative to compound 11 (rat brain AChE; ratio of IC50 values): ~46 fold
5 | O=C(NN=C(CBr)c1ccc(Br)cc1)Nc1ncc([N+](=O)[O-])s1 [Compound 9, 1-(2-Bromo-1-(4-bromophenyl)ethylidene)-4-(5-nitrothiazol-2-yl)semicarbazide] |  | 314 ± 1.89 µM | 0.313 ± 0.007 µM | 1003.19 | 3.926 ± 0.014 µM | 35.89% | 2/4 | 1/4 | 0/4 | 0/4 | Neurotoxicity (verdict in words) (mice; 30 mg/kg, relative to phenytoin): moderately neurotoxic
6 | O=C(NN=Cc1c(Cl)cccc1Cl)Nc1ncc([N+](=O)[O-])s1 [Compound 14, 1-(2,6-Dichlorobenzylidene)-4-(5-nitrothiazol-2-yl)semicarbazide] | 3.1 | 13910 ± 19.7 µM | 16.9 ± 0.37 µM | 821.43 | 10.7 ± 0.56 µM | 55.29% |  |  |  |  | MAO-B: fold less active than compound 13 (MAO-B; isomeric dichloro derivatives): ~4.85 fold
7 | O=C1O[C@H]([C@@H](O)CO)C(O)=C1O [Ascorbic acid, reference compound] |  |  |  |  |  | 61.24% |  |  |  |  | 
8 | CC(=NNC(=O)Nc1ncc([N+](=O)[O-])s1)c1ccc([N+](=O)[O-])cc1 [Compound 8, 1-(1-(4-Nitrophenyl)ethylidene)-4-(5-nitrothiazol-2-yl)semicarbazide] |  |  | 23.88 ± 0.022 µM | 114.86 |  | 11.60% |  |  |  |  | logP (physchem): 1.4; IC50 (MAO-A; MAO-A In vitro IC50 (µM) ± SEM): 2743 ± 3.65 µM; IC50 (rat brain AChE; AChE In vitro IC50 (µM) ± SEM): 45.5 ± 1.36 µM
9 | CC(=NNC(=O)Nc1ncc([N+](=O)[O-])s1)c1ccc(F)cc1 [Compound 6, 1-(1-(4-Fluorophenyl)ethylidene)-4-(5-nitrothiazol-2-yl)semicarbazide] | 1.3 | > 100 µM and 46100 µM | 19.89 ± 0.032 µM | 2316.04 | 468 ± 4.98 µM | 30.43% |  |  |  |  | AChE: fold decrease in activity versus bromo substitution (compound 4) (rat brain AChE; halogen at carbimino terminal phenyl ring): > 1000 fold
10 | O=C1NC(=O)C(c2ccccc2)(c2ccccc2)N1 [Phenytoin, reference compound] |  |  |  |  |  |  | 0/4 | 0/4 | 0/4 | 0/2 | 
